Measurements as given in ChEMBL document CHEMBL1201861, “Genomics of Drug Sensitity in Cancer screening data, Wellcome Trust Sanger Institute”.

Columns and labels:
Test in all cases: cells
SK-UT-1 = assay type: functional, cell-based, Homo sapiens; conditions: Homo sapiens, SK-UT-1;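 note: growth inhibition of SK-UT-1 cells, measured by a cell viability assay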
Description: SANGER: Inhibition of human SK-UT-1 cell growth in a cell viability assay.

HCC1806 = assay type: functional, cell-based, Homo sapiens; conditions: Homo sapiens, HCC1806;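 note: growth inhibition of the cancer cell line, determined with a cell viability assay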
Description: SANGER: Inhibition of human HCC1806 cell growth in a cell viability assay.

HCC1419 = assay type: functional, cell-based, Homo sapiens; conditions: Homo sapiens, HCC1419;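 note: growth inhibition of human HCC1419 cells, read out as cell viability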
Description: SANGER: Inhibition of human HCC1419 cell growth in a cell viability assay.

MeWo = assay type: functional, cell-based, Homo sapiens; conditions: Homo sapiens, MeWo;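 note: growth inhibition of MeWo cells, determined by a cell viability readout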
Description: SANGER: Inhibition of human Mewo cell growth in a cell viability assay.

NCI-H1755 = assay type: functional, cell-based, Homo sapiens; conditions: Homo sapiens, NCI-H1755;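 note: cell viability readout used to measure growth inhibition of NCI-H1755 cells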
Description: SANGER: Inhibition of human NCI-H1755 cell growth in a cell viability assay.

LCLC-103H cell line = assay type: functional, cell-based, Homo sapiens; conditions: Homo sapiens, LCLC-103H
Description: SANGER: Inhibition of human LCLC-103H cell growth in a cell viability assay.

LS-1034 = assay type: functional, cell-based, Homo sapiens; conditions: Homo sapiens, LS-1034
Description: SANGER: Inhibition of human LS-1034 cell growth in a cell viability assay.

OMC-1 = assay type: functional, cell-based, Homo sapiens; conditions: Homo sapiens, OMC-1;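 note: growth inhibition of the OMC-1 cell line, measured by a cell viability assay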
Description: SANGER: Inhibition of human OMC-1 cell growth in a cell viability assay.

U-251 = assay type: functional, cell-based, Homo sapiens; conditions: Homo sapiens, U-251;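 note: growth inhibition of human U-251 cells, read out through a cell viability assay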
Description: SANGER: Inhibition of human U251 cell growth in a cell viability assay.

A2780 = assay type: functional, cell-based, Homo sapiens; conditions: Homo sapiens, A2780;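 note: growth inhibition of A2780 cells, read out with a cell viability assay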
Description: SANGER: Inhibition of human A2780 cell growth in a cell viability assay.

KP-4 = assay type: functional, cell-based, Homo sapiens; conditions: Homo sapiens, KP-4; read-out: IC50;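 note: human KP-4 cells, with growth inhibition read out through a cell viability assay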
Description: SANGER: Inhibition of human KP-4 cell growth in a cell viability assay.

CWR22R = assay type: functional, cell-based, Homo sapiens; conditions: Homo sapiens, 22Rv1;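 note: growth inhibition of 22Rv1 cells, read out with a cell viability assay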
Description: SANGER: Inhibition of human 22RV1 cell growth in a cell viability assay.

HT1197 = assay type: functional, cell-based, Homo sapiens, HT-1197; conditions: Homo sapiens, HT1197
Description: SANGER: Inhibition of human HT-1197 cell growth in a cell viability assay.

Ramos-2G6-4C10 = assay type: functional, cell-based; conditions: Homo sapiens;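 note: growth inhibition of the cell line, measured by a cell viability read-out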
Description: SANGER: Inhibition of human Ramos-2G6-4C10 cell growth in a cell viability assay.

H4 = assay type: functional, cell-based; conditions: Homo sapiens
Description: SANGER: Inhibition of human H4 cell growth in a cell viability assay.

U-266 = assay type: functional, cell-based; conditions: Homo sapiens
Description: SANGER: Inhibition of human U-266 cell growth in a cell viability assay.

NCI-H1838 = assay type: functional, cell-based, Homo sapiens; conditions: Homo sapiens, NCI-H1838;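 note: growth inhibition of NCI-H1838 cells, determined with a cell viability readout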
Description: SANGER: Inhibition of human NCI-H1838 cell growth in a cell viability assay.

SCC-9 = assay type: functional, cell-based, Homo sapiens; conditions: Homo sapiens, SCC-9;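 note: Read-out is a cell viability assay, with values giving inhibition of cell growth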
Description: SANGER: Inhibition of human SCC-9 cell growth in a cell viability assay.

HMV-2 cell line = assay type: functional, cell-based, Homo sapiens; conditions: Homo sapiens, HMV-2;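 note: growth inhibition of HMV-II cells, read out with a cell viability assay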
Description: SANGER: Inhibition of human HMV-II cell growth in a cell viability assay.

SK-NEP-1 = assay type: functional, cell-based; conditions: Homo sapiens;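 note: growth inhibition of human SK-NEP-1 cells, read out by a cell viability assay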
Description: SANGER: Inhibition of human SK-NEP-1 cell growth in a cell viability assay.

KP-N-YN = assay type: functional, cell-based; conditions: Homo sapiens;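 note: growth inhibition of KP-N-YN cells, read out with a cell viability assay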
Description: SANGER: Inhibition of human KP-N-YN cell growth in a cell viability assay.

HCC1569 = assay type: functional, cell-based, Homo sapiens; conditions: Homo sapiens, HCC1569;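 note: growth inhibition of human HCC1569 cells, read out with a cell viability assay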
Description: SANGER: Inhibition of human HCC1569 cell growth in a cell viability assay.

Calu-3 = assay type: functional, cell-based, Homo sapiens; conditions: Homo sapiens, Calu-3;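 note: growth inhibition of human Calu-3 cells, determined with a cell viability assay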
Description: SANGER: Inhibition of human Calu-3 cell growth in a cell viability assay.

SK-MES-1 = assay type: functional, cell-based, Homo sapiens; conditions: Homo sapiens, SK-MES-1;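 note: growth inhibition of human SK-MES-1 cells, read out with a cell viability assay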
Description: SANGER: Inhibition of human SK-MES-1 cell growth in a cell viability assay.

PC-14 = assay type: functional, cell-based, Homo sapiens; conditions: Homo sapiens, PC-14;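 note: cell viability assay measuring inhibition of PC-14 cell growth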
Description: SANGER: Inhibition of human PC-14 cell growth in a cell viability assay.

HL-60 = assay type: functional, cell-based; conditions: Homo sapiens;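 note: growth inhibition of human HL-60 cells, read out with a cell viability assay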
Description: SANGER: Inhibition of human HL-60 cell growth in a cell viability assay.

SCC-4 = assay type: functional, cell-based, Homo sapiens; conditions: Homo sapiens, SCC-4;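 note: growth inhibition of human SCC-4 cells, read out as cell viability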
Description: SANGER: Inhibition of human SCC-4 cell growth in a cell viability assay.

OVCAR-4 = assay type: functional, cell-based, Homo sapiens; conditions: Homo sapiens, OVCAR-4;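 note: growth inhibition of human OVCAR-4 cells, measured with a cell viability assay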
Description: SANGER: Inhibition of human OVCAR-4 cell growth in a cell viability assay.

ChaGo-K-1 = assay type: functional, cell-based; conditions: Homo sapiens;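 note: growth inhibition of ChaGo-K-1 cells, read out with a cell viability assay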
Description: SANGER: Inhibition of human ChaGo-K-1 cell growth in a cell viability assay.

DOHH-2 = assay type: functional, cell-based; conditions: Homo sapiens;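 note: growth inhibition of human DOHH-2 cells, read out with a cell viability assay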
Description: SANGER: Inhibition of human DOHH-2 cell growth in a cell viability assay.

NB10 = assay type: functional, cell-based, Homo sapiens; conditions: Homo sapiens, NB10;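 note: growth inhibition of NB10 cells, read out by a cell viability assay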
Description: SANGER: Inhibition of human NB10 cell growth in a cell viability assay.

BE-13 = assay type: functional, cell-based; conditions: Homo sapiens;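 note: growth inhibition of human BE-13 cells, measured with a cell viability assay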
Description: SANGER: Inhibition of human BE-13 cell growth in a cell viability assay.

SW1710 = assay type: functional, cell-based, Homo sapiens; conditions: Homo sapiens, SW1710;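 note: growth inhibition of SW1710 cells, determined with a cell viability assay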
Description: SANGER: Inhibition of human SW1710 cell growth in a cell viability assay.

A101D = assay type: functional, cell-based, Homo sapiens; conditions: Homo sapiens, A101D;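 note: growth inhibition of the cell line, measured with a viability assay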
Description: SANGER: Inhibition of human A101D cell growth in a cell viability assay.

SW756 = assay type: functional, cell-based, Homo sapiens; conditions: Homo sapiens, SW756;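 note: growth inhibition of human SW756 cells, read out with a cell viability assay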
Description: SANGER: Inhibition of human SW756 cell growth in a cell viability assay.

MHH-ES-1 = assay type: functional, cell-based, Homo sapiens; conditions: Homo sapiens, MHH-ES-1;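 note: cell growth inhibition measured by a cell viability assay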
Description: SANGER: Inhibition of human MHH-ES-1 cell growth in a cell viability assay.

UMC-11 = assay type: functional, cell-based, Homo sapiens; conditions: Homo sapiens, UMC-11;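 note: growth inhibition of UMC-11 cells, read out with a cell viability assay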
Description: SANGER: Inhibition of human UMC-11 cell growth in a cell viability assay.

ES3 = assay type: functional, cell-based, Homo sapiens; conditions: Homo sapiens, ES3;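 note: growth inhibition of ES3 cells, read out with a cell viability assay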
Description: SANGER: Inhibition of human ES3 cell growth in a cell viability assay.

T-24 = assay type: functional, cell-based, Homo sapiens; conditions: Homo sapiens, T-24;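 note: growth inhibition of T-24 cells, read out with a cell viability assay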
Description: SANGER: Inhibition of human T-24 cell growth in a cell viability assay.

CaR-1 = assay type: functional, cell-based, Homo sapiens; conditions: Homo sapiens, CaR-1;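 note: growth inhibition of human CaR-1 cancer cells, read out with a cell viability assay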
Description: SANGER: Inhibition of human CaR-1 cell growth in a cell viability assay.

KNS-42 = assay type: functional, cell-based, Homo sapiens; conditions: Homo sapiens, KNS-42;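 note: growth inhibition of KNS-42 cells, read out with a cell viability assay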
Description: SANGER: Inhibition of human KNS-42 cell growth in a cell viability assay.

BT-474 = assay type: functional, cell-based, Homo sapiens; conditions: Homo sapiens, BT-474
Description: SANGER: Inhibition of human BT-474 cell growth in a cell viability assay.

GP5d = assay type: functional, cell-based, Homo sapiens; conditions: Homo sapiens, GP5d;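 note: growth inhibition of human GP5d cells, read out with a cell viability assay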
Description: SANGER: Inhibition of human GP5d cell growth in a cell viability assay.

SKG-IIIa = assay type: functional, cell-based, Homo sapiens; conditions: Homo sapiens, SKG-IIIa;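 note: cell growth inhibition, read out with a cell viability assay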
Description: SANGER: Inhibition of human SKG-IIIa cell growth in a cell viability assay.

KYSE-450 = assay type: functional, cell-based; conditions: Homo sapiens;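 note: cell growth inhibition measured by a viability assay in human KYSE-450 cells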
Description: SANGER: Inhibition of human KYSE-450 cell growth in a cell viability assay.

C-33-A = assay type: functional, cell-based, Homo sapiens; conditions: Homo sapiens, C-33-A;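 note: cell viability assay measuring growth inhibition of C-33-A cells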
Description: SANGER: Inhibition of human C-33-A cell growth in a cell viability assay.

A-427 = assay type: functional, cell-based, Homo sapiens; conditions: Homo sapiens, A-427;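 note: growth inhibition of human A-427 cells, read out by a cell viability assay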
Description: SANGER: Inhibition of human A427 cell growth in a cell viability assay.

LK-2 = assay type: functional, cell-based, Homo sapiens; conditions: Homo sapiens, LK-2;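 note: growth inhibition of LK-2 cells, read out with a viability assay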
Description: SANGER: Inhibition of human LK-2 cell growth in a cell viability assay.

NCI-H520 = assay type: functional, cell-based, Homo sapiens; conditions: Homo sapiens, NCI-H520;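 note: growth inhibition of NCI-H520 cells, measured by a cell viability assay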
Description: SANGER: Inhibition of human NCI-H520 cell growth in a cell viability assay.

BXPC-3 = assay type: functional, cell-based, Homo sapiens; conditions: Homo sapiens, BXPC-3;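 note: growth inhibition of human BxPC-3 cells, read out by a cell viability assay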
Description: SANGER: Inhibition of human BxPC-3 cell growth in a cell viability assay.

O=C1N=C(NCc2cccs2)S/C1=C\c1ccc2ncccc2c1
IC50 (SK-UT-1): > 5 µM
IC50 (HCC1806): > 5 µM
IC50 (HCC1419): > 5 µM
IC50 (MeWo): > 5 µM
IC50 (NCI-H1755): > 5 µM
IC50 (LCLC-103H cell line): > 5 µM
IC50 (LS-1034): > 5 µM
IC50 (OMC-1): > 5 µM
IC50 (U-251): 1.64 µM
IC50 (A2780): > 5 µM
IC50 (KP-4): > 5 µM
IC50 (CWR22R): > 5 µM
IC50 (HT1197): > 5 µM
IC50 (Ramos-2G6-4C10): > 5 µM
IC50 (H4): 1.16 µM
IC50 (U-266): > 5 µM
IC50 (NCI-H1838): > 5 µM
IC50 (SCC-9): > 5 µM
IC50 (HMV-2 cell line): > 5 µM
IC50 (SK-NEP-1): > 5 µM
IC50 (KP-N-YN): > 5 µM
IC50 (HCC1569): > 5 µM
IC50 (Calu-3): > 5 µM
IC50 (SK-MES-1): > 5 µM
IC50 (PC-14): > 5 µM
IC50 (HL-60): > 5 µM
IC50 (SCC-4): > 5 µM
IC50 (OVCAR-4): > 5 µM
IC50 (ChaGo-K-1): > 5 µM
IC50 (DOHH-2): > 5 µM
IC50 (NB10): > 5 µM
IC50 (BE-13): > 5 µM
IC50 (SW1710): 1.61 µM
IC50 (A101D): > 5 µM
IC50 (SW756): > 5 µM
IC50 (MHH-ES-1): > 5 µM
IC50 (UMC-11): > 5 µM
IC50 (ES3): > 5 µM
IC50 (T-24): > 5 µM
IC50 (CaR-1): > 5 µM
IC50 (KNS-42): > 5 µM
IC50 (BT-474): > 5 µM
IC50 (GP5d): > 5 µM
IC50 (SKG-IIIa): > 5 µM
IC50 (KYSE-450): > 5 µM
IC50 (C-33-A): > 5 µM
IC50 (A-427): > 5 µM
IC50 (LK-2): > 5 µM
IC50 (NCI-H520): > 5 µM
IC50 (BXPC-3): > 5 µM
